Measured values: patent US20240209456A1, “METHODS AND COMPOSITIONS RELATED TO CELL-CYCLE RNA's” (BETH ISRAEL DEACONESS MEDICAL CENTER, priority 2021, published 2024)
*1 amine or outer side, *2 acyl side, *3 side chain or, on linkers, in order; H or OH if unused. Where a SMILES comes first, the peptide text is derived from it. Bridges are numbered along the chain shown (N, C = ends). Roman numbers before positions name the chains, in order. [ ]: non-standard residue; d: D form. Actinocin(9to1) = Cc1c2oc3c(C)ccc(C(=O)[*:1])c3nc-2c(C(=O)[*:2])c(N)c1=O; NMeV = CN[C@H](C(=O)O)C(C)C; Sar = CNCC(=O)O

Test system: c-MYC SPEARs
Assay: qRT-PCR / strand-specific qRT-PCR of c-MYC SPEARs
Assay type: cell-based, human
Conditions: for response of total c-MYC SPEARs: HL-60 released from double thymidine block, 2 hrs, MG149 200 μM, TH1834 500 μM; for c-MYC SPEARs level upon transcription inhibitors: HL-60, DRB and ActD, FIG. 10C
Protocol: Total RNA isolation was carried out and all RNA samples used in this study were treated with DNase I (10 U of DNase I per 3 μg of total RNA; 37° C. for one hour; in the presence of RNase inhibitor). After DNase I treatment, RNA samples were extracted with acidic phenol (pH 4.3) to eliminate any remaining traces of DNA. cDNA syntheses were performed with Random Primers (Invitrogen) or gene-specific primers with Transcriptor Reverse Transcriptase (Roche Applied Science) according to the manufacturer's recommendation. cDNA was purified with a High Pure PCR Product Purification Kit (Roche Applied Science).
Sybr green reaction was performed using iQ Sybr Green supermix (Biorad, Hercules, CA) using the following parameters: 95° C. (10 min), 40 cycles of 95° C. (15 s) and 60° C. (1 min) 72° C. (1 min). TaqMan analysis was performed using Hotstart Probe One-step qRT-PCR master mix (USB) at the following conditions: 50° C. (10 min.), 95° C. (2 min.), and then 40 cycles of 95° C. (15 sec.) and 60° C. (60 sec.).
Primers used for strand-specific real-time RT PCR (Sybr): Reverse Transcriptase primer for c-MYC SPEARs: 5′-AACCGCATCCTTGTCCTGTGAGTA-3′ (SEQ ID NO: 1); PCR primers: Forward: 5′-ACAGGCAGACACATCTCAGGGCTA-3′ (SEQ ID NO: 2); Reverse: 5′-ATAGGGAGGAATGATAGAGGCATA-3′ (SEQ ID NO: 3); and Reverse Transcriptase primer for PU1 SPEARs: 5′-GGCTTTTGCTCTAACCCAAC-3′ (SEQ ID NO: 4); PCR primers: Forward: 5′-ACTATGCTGAAGACCCTACAC-3′ (SEQ ID NO: 5); Reverse: 5′-GCTCTAACCCAACAAATGCC-3′ (SEQ ID NO: 6).
Nascent RNA/DNA capture was performed using Click-iT Nascent RNA Capture Kit (ThermoFisher) according to the manufacturer's instructions with minor modifications. Briefly, 1. Labeling the cells with EU/EdU. 200 mM EU or 30 mM EdU stock solutions were added to the cells, to a final concentration 0.5 mM or 30 μM, respectively. 2. Incubation. The cells were incubated for 1 or 2 hours. 3. RNA/DNA isolation. The cells were harvested and the RNA/DNA were isolated and dissolved in 14 μL of H2O. 4. Biotinylation of RNA/DNA by Click reaction. Click-iT reaction cocktail (50 μL per reaction) was prepared accordingly to manufacturer's instructions: a mixture containing 1× Click-iT EU buffer; 2 mM CuSO4; 1 mM Biotin azide; 13.25 μL of the isolated RNA; 10 mM Click-iT reaction buffer additive 1; 12 mM Click-iT reaction buffer additive 2 was prepared. After adding each component, the reaction cocktail was gently mixed by vortexing. The addition of the Click-iT reaction buffer additive 1 stock initiates the click reaction between the EU-RNA/EdU-DNA and biotin azide. Afterwards the Click-iT® reaction buffer additive 2 is added and incubated for 30 minutes with gentle vortexing. 5. RNA/DNA precipitation. […]

SMILES	response of total c-MYC SPEARs	c-MYC SPEARs level upon transcription inhibitors
CCCCCCCc1ccc(CCc2cccc(O)c2C(=O)O)cc1 [MG149]	not affected	
OC[C@H]1O[C@@H](n2cnc3cc(Cl)c(Cl)cc32)[C@H](O)[C@@H]1O [DRB, 5,6-Dichlorobenzimidazole 1-β-D-ribofuranoside]		negatively affected
O=C(O)Cn1nnc(-c2ccc(CN(CCCCOc3ccc(CN4CCCC4)cc3)CCc3ccccc3)cc2)n1 [TH1834]	not affected	
Cc1c2oc3c(C)ccc(C(=O)N[C@@H]4C(=O)N[C@H](C(C)C)C(=O)N5CCC[C@H]5C(=O)N(C)CC(=O)N(C)[C@@H](C(C)C)C(=O)O[C@@H]4C)c3nc-2c(C(=O)N[C@@H]2C(=O)N[C@H](C(C)C)C(=O)N3CCC[C@H]3C(=O)N(C)CC(=O)N(C)[C@@H](C(C)C)C(=O)O[C@@H]2C)c(N)c1=O [ActD, Actinomycin D] (I: T[dV]P[Sar][NMeV] / II: T[dV]P[Sar][NMeV]; ester I:1-I:C, II:1-II:C; linker I:N-II:N via Actinocin(9to1))		negatively affected
